Holding throughout (assay type): in vivo
Details in all cases: evaluated after 13 days, 10=total damage to plant, 0=no damage to plant

The test system of assay [1] is Setaria faberi. Put plainly: Example B2 herbicidal action, post-emergence, pots in glasshouse. As for the experimental part:
(§1) Seeds of a variety of test species were sown in standard soil in pots. After cultivation for one day (pre-emergence) or after 8 days cultivation (post-emergence) under controlled conditions in a glasshouse (at 24/16° C., day/night; 14 hours light; 65% humidity), the plants were sprayed with an aqueous spray solution derived from the formulation of the technical active ingredient in acetone/water (50:50) solution containing 0.5% Tween 20 (polyoxyethelyene sorbitan monolaurate, CAS RN 9005-64-5). The test plants were then grown in a glasshouse under controlled conditions in a glasshouse (at 24/16° C., day/night; 14 hours light; 65% humidity) and watered twice daily. After 13 days, the test was evaluated (10=total damage to plant; 0=no damage to plant).

The test system of assay [2] is Echinochloa crus-galli. Described as above. As for the experimental part:
as §1

Assay [3] has as its system Ipomea hederaceae. Described as above. As for the experimental part:
as §1

The subject of assay [4] is Solanum nigrum. Described as above. As for the experimental part:
as §1

In assay [5] the test system is Amaranthus retroflexus. The description is as above. As for the experimental part: as §1
The subject of assay [6] is Setaria faberi. Put plainly: Example B2 herbicidal action, pre-emergence, pots in glasshouse. As for the experimental part:
as §1

Assay [7] relates to Echinochloa crus-galli. Described as above. As for the experimental part:
as §1

Assay [8] relates to Ipomea hederaceae. The assay is described as above. As for the experimental part: as §1
For assay [9], the system named is Solanum nigrum. The description is as above. As for the experimental part: as §1
Assay [10] concerns Amaranthus retroflexus. The description is as above. As for the experimental part:
as §1

Regarding `CC(C)(C)C(=O)Oc1c(-c2ccc(Cl)nc2Cl)c(=O)[nH]c2nccnc12` [Compound A14, 2,2-dimethyl-propionic acid 7-(2,6-dichloro-pyrid-3-yl)-6-oxo-5,6-dihydro-pyrido[2,3-b]pyrazin-8-yl ester], the “SETFA, damage to plant” value with Setaria faberi [1] (1000 g/ha) stood at 7; with Setaria faberi [6] (1000 g/ha) it was 2. For the same molecule, the “ECHCG, damage to plant” value with Echinochloa crus-galli [2] (1000 g/ha) is recorded as 6; in the assay with Echinochloa crus-galli [7] (1000 g/ha), 4. Moreover, the “IPOHE, damage to plant” value is 4 with Ipomea hederaceae [3] (1000 g/ha) and 0 in the assay on Ipomea hederaceae [8] (1000 g/ha). The results for the “SOLNI, damage to plant” value in the assay with Solanum nigrum [4] (1000 g/ha) and with Solanum nigrum [9] (1000 g/ha) were 7 and 0, respectively. Besides, the “AMARE, damage to plant” value came to 5 in the assay on Amaranthus retroflexus [5] (1000 g/ha) and 0 in the assay with Amaranthus retroflexus [10] (1000 g/ha).
As for `O=c1c(-c2cc(Cl)ncc2Cl)c(O)c2nccnc2n1CC(F)F` [Compound A21, 7-(2,5-Dichloro-pyrid-4-yl)-5-(2,2-difluoro-ethyl)-8-hydroxy-5H-pyrido[2,3-b]pyrazin-6-one], the “SETFA, damage to plant” value in the assay on Setaria faberi [1] (1000 g/ha) is listed as 7; in the assay with Setaria faberi [6] (1000 g/ha) it was 2. In addition, the “ECHCG, damage to plant” value in the assay with Echinochloa crus-galli [2] (1000 g/ha) is reported as 7; in the assay with Echinochloa crus-galli [7] (1000 g/ha) it was 0. The “IPOHE, damage to plant” value with Ipomea hederaceae [3] (1000 g/ha) is given as 7; in the assay on Ipomea hederaceae [8] (1000 g/ha), 0. The “SOLNI, damage to plant” value in the assay with Solanum nigrum [4] (1000 g/ha) turned out to be 8; in the assay with Solanum nigrum [9] (1000 g/ha), 0. In addition, the “AMARE, damage to plant” value in the assay with Amaranthus retroflexus [5] (1000 g/ha) stood at 9; with Amaranthus retroflexus [10] (1000 g/ha) it was 2.
As to `O=c1c(-c2cnc(Cl)cc2Cl)c(O)c2nccnc2n1CC(F)F` [Compound A19, 7-(4,6-Dichloro-pyrid-3-yl)-5-(2,2-difluoro-ethyl)-8-hydroxy-5H-pyrido[2,3-b]pyrazin-6-one], the “SETFA, damage to plant” value in the assay with Setaria faberi [1] (1000 g/ha) is on record as 4; in the assay with Setaria faberi [6] (1000 g/ha) it was 0. The “ECHCG, damage to plant” value with Echinochloa crus-galli [2] (1000 g/ha) came to 6; in the assay on Echinochloa crus-galli [7] (1000 g/ha) it was 5. Also, the “IPOHE, damage to plant” value in the assay with Ipomea hederaceae [3] (1000 g/ha) was found to be 8; in the assay with Ipomea hederaceae [8] (1000 g/ha) it was 1. Besides, the entries for the “SOLNI, damage to plant” value in the assay with Solanum nigrum [4] (1000 g/ha) and in the assay on Solanum nigrum [9] (1000 g/ha) were 10 and 0, respectively. The “AMARE, damage to plant” value with Amaranthus retroflexus [5] (1000 g/ha) is 10; in the assay with Amaranthus retroflexus [10] (1000 g/ha), 7.
`Cn1nc(-c2c(O)c3nccnc3n(CC(F)F)c2=O)c(C(F)(F)F)n1` [Compound B30]: the results for the “SETFA, damage to plant” value in the assay on Setaria faberi [1] (1000 g/ha) and in the assay with Setaria faberi [6] (1000 g/ha) were 7 and 2, respectively. Further, the “ECHCG, damage to plant” value with Echinochloa crus-galli [2] (1000 g/ha) was determined as 6; in the assay on Echinochloa crus-galli [7] (1000 g/ha) it was 1. Further, the “IPOHE, damage to plant” value is 8 with Ipomea hederaceae [3] (1000 g/ha) and 3 in the assay on Ipomea hederaceae [8] (1000 g/ha). Also, the “SOLNI, damage to plant” value in the assay on Solanum nigrum [4] (1000 g/ha) came out at 9; in the assay on Solanum nigrum [9] (1000 g/ha), 2. Moreover, the “AMARE, damage to plant” value in the assay with Amaranthus retroflexus [5] (1000 g/ha) amounted to 9; with Amaranthus retroflexus [10] (1000 g/ha), 7.
With `CC(C)(C)C(=O)Oc1c(-c2cnc(Cl)cc2Cl)c(=O)n(CC(F)F)c2nccnc12` [Compound A20, 2,2-Dimethyl-propionic acid 7-(4,6-dichloro-pyrid-3-yl)-5-(2,2-difluoro-ethyl)-6-oxo-5,6-dihydro-pyrido[2,3-b]pyrazin-8-yl ester], the entries for the “SETFA, damage to plant” value with Setaria faberi [1] (250 g/ha) and in the assay with Setaria faberi [6] (250 g/ha) were 2 and 0, respectively. The “ECHCG, damage to plant” value in the assay on Echinochloa crus-galli [2] (250 g/ha) is recorded as 7; in the assay on Echinochloa crus-galli [7] (250 g/ha), 3. Besides, the entries for the “IPOHE, damage to plant” value in the assay with Ipomea hederaceae [3] (250 g/ha) and in the assay with Ipomea hederaceae [8] (250 g/ha) were 10 and 0, respectively. Also, the “SOLNI, damage to plant” value in the assay on Solanum nigrum [4] (250 g/ha) worked out at 10; in the assay with Solanum nigrum [9] (250 g/ha), 1. The “AMARE, damage to plant” value with Amaranthus retroflexus [5] (250 g/ha) is listed as 10; in the assay on Amaranthus retroflexus [10] (250 g/ha), 1.
As to `CCn1c(=O)c(-c2c(Cl)cncc2Cl)c(OC(=O)C(C)(C)C)c2nccnc21` [Compound A10, 2,2-Dimethyl-propionic acid 7-(3,5-dichloro-pyrid-4-yl)-5-ethyl-6-oxo-5,6-dihydro-pyrido[2,3-b]pyrazin-8-yl ester], the figures for the “SETFA, damage to plant” value in the assay on Setaria faberi [1] (1000 g/ha) and in the assay with Setaria faberi [6] (1000 g/ha) were 6 and 1, respectively. In addition, the “ECHCG, damage to plant” value in the assay on Echinochloa crus-galli [2] (1000 g/ha) was found to be 7; in the assay on Echinochloa crus-galli [7] (1000 g/ha) it was 5. The “IPOHE, damage to plant” value is 8 with Ipomea hederaceae [3] (1000 g/ha) and 2 in the assay on Ipomea hederaceae [8] (1000 g/ha). Further, the “SOLNI, damage to plant” value in the assay with Solanum nigrum [4] (1000 g/ha) is 9; with Solanum nigrum [9] (1000 g/ha), 2. Moreover, the “AMARE, damage to plant” value is 9 in the assay on Amaranthus retroflexus [5] (1000 g/ha) and 0 in the assay on Amaranthus retroflexus [10] (1000 g/ha).
